Test results taken from patent US20100215653A1, “METHODS OF TREATING NEOPLASTIC, AUTOIMMUNE AND INFLAMMATORY DISEASES” (Seattle Genetics, Inc., priority 2006, published 2010).
Entries after “also recorded” stand apart in the source; their conditions may differ.

What was measured:
HEL9217 cells = assay: HEL9217 disseminated MDR-positive AML model in SCID mice; assay type: in vivo
Text: (§1) The MDR-negative HL60 cell line and the MDR-positive HEL9217 and TF1-α cell lines were used. […] Disease symptoms typically developed between about 35 and about 80 days, and included hind limb paralysis, scruffy coat, weight loss, palpable tumors, and/or tumor masses in bone, peritoneal cavity, or soft tissues. Human CD33+ tumor cells were detected in the blood, bone marrow, and lymph nodes of the majority of the mice by flow cytometry (FIG. 25). Solid tumors associated with bone or soft tissues were found in 20 to 60% of the mice.

[1] = system: AML tumor cells (KG-1 HEL9217, and TF1α); assay: ADCC, 51Cr release assay with NK effector cells; assay type: cell-based, human; conditions: MDR-positive and MDR-negative AML cells; effector to target ratio 10:1 (FIG. 27A)
Protocol: Target AML tumor cells (KG-1 HEL9217, and TF1α) were labeled with Na^51CrO4 and mixed with enriched CD16^+ effector (NK) cells, prepared using PBMCs from normal donors. The effector to target cell ratio was 10:1. […] Macrophages were labeled with CD11b−FITC or CD14-FITC antibody. Flow cytometric analyses of dual labeled (PKH67+CD11b+ or PKH67+CD14+) cells was used to determine specific uptake (phagocytosis). […] Media were collected 18 h later and analyzed by ELISA for IL-8 or MCP-1.
Viable NK cells were pre-treated for 2 to 3 h with lenalidomide or thalidomide (as described in FIG. 23) prior to addition to target cells.

[2] = system: primary human macrophages; assay: Macrophage migration in response to chemoattractants (CytoSelect Cell Migration Assay); assay type: cell-based
Protocol: (§2) The migration of macrophages in response to challenge with plating media containing 10% human serum, 20% conditioned tumor cell media, or 50 ng/ml TGF-β, VEGF, TNF-α, or IFN-γ was evaluated using the CytoSelect Cell Migration Assay (Cell Biolabs, San Diego, Calif.). […] The study was stopped 18 hours later and migration was evaluated after dissociation of the cells from the membrane followed by detection with Cyquant GR dye.
as §2, with “serum or” for “serum,”, “media” for “media, or 50 ng/ml TGF-β, VEGF, TNF-α, or IFN-γ”, “studies were” for “study was”, “h” for “hours”

[3] = system: relapsed and refractory acute myeloid leukemia (AML); conditions: low dose, infrequent administration; cited from earlier work
HL-60 cells = assay: HL-60 disseminated AML model in mice; assay type: in vivo
Protocol: Mice were implanted with an AML cell line, HL-60, as follows: 5 million HL-60 cells were injected intravenously. The mice were treated with lintuzumab (10 mg/kg, q4dx4, ip), cytarabine (1 mg/kg, 5 mg/kg or 25 mg/kg, q1dx10, ip; or 50 mg/kg or 100 mg/kg, q2dx5, ip) or lintuzumab with cytarabine (dosed as described previously). Treatment began on day one. Referring to FIG. 22, the control mice or mice treated with placebo (0.9% saline) were removed from the study by day 80, due to tumor progression.
To confirm the data of the in vitro study, mice were implanted with an AML cell line, HL-60, as follows: 5 million HL-60 cells were injected intravenously. […] Treatment began on day one. Referring to FIG. 24, the control mice were removed from the study by about day 60 due to tumor progression. Mice treated with lenalidomide were removed from study by about day 90 for similar reasons.
as §1

CD33 = CD33 (Homo sapiens, UniProt P20138); assay: CD33 tyrosine phosphorylation (CD33 immunoprecipitation, anti-phosphotyrosine Western blot); assay type: cell-based; parameters: endogenous in cells; host or cells: HL-60, U937; primary human CD14+ monocytes and PBMC-derived macrophages
Protocol: CD33-positive cell lines were treated with anti-CD33 antibodies (lintuzumab and certain commercially available antibodies). Cell extracts were prepared and CD33 was immunoprecipitated using an anti-CD33 antibody (MY9 clone; Beckman Coulter, Calif.). Western blotting was performed with an anti-phosphotyrosine antibody (4G10; Upstate Biotechnologies, Inc., Lake Placid, N.Y.).
Deglycosylation was confirmed by CE-SDS. […] Cell lysates were prepared and CD33 immunoprecipitated using an anti-CD33 rabbit polyclonal antibody (Santa Cruz Biotechnology, Santa Cruz, Calif.) prior to SDS PAGE gel electrophoresis. Western blot analyses of these samples were performed using the 4G10 phosphotyrosine antibody (Upstate Biotechnology, Temucula, Calif.), anti-CD33 antibody (NovoCastra, Norwell, Mass.), and anti-SHP-1 antibody (Calbiochem, San Diego, Calif.). Control lysate for SHP-1 was prepared from a B cell lymphoma cell line.

HEL 92.1.7 cells = assay: Complement-dependent cytotoxicity (CDC) activity; assay type: cell-based, human; conditions: MDR+, CD33-positive HEL 92.1.7 cells (FIG. 4)
Protocol: The purpose of this study was to determine whether the cytotoxic effects of an anti-CD33 antibody (HuM195) on AML cells could be enhanced by combination treatment with chemotherapeutic drugs. An MDR^+, CD33-positive AML cell line (HEL 92.1.7) was either untreated or preincubated with the indicated concentrations of thalidomide or 5-azacytidine for two hours prior to exposure to the anti-CD33 Ab. Cytotoxic activity was measured using a complement-dependent cytotoxicity (CDC) activity.

[4] = system: primary human macrophages; assay: Cell viability (CelltiterGlo) of primary human macrophages; assay type: cell-based; conditions: 24 to 72 hours of exposure to increasing concentrations (FIG. 8)
Protocol: Macrophages were harvested, counted, and cultured in 96-well plates at 35,000 cells per well. G-CSF-mobilized CD14^+ monocytes (Cambrex) were cultured in 96-well plates at 100,000 cells per well (adherent cells) in sterile polypropylene dishes (non-adherent cells).

KG-1 AML cell line = assay: Cytokine production by KG-1 AML cell line after TNF-alpha; assay type: cell-based, human; conditions: 2.5 μg/ml pre-treatment, then 1 ng/ml TNF-alpha, 18 h
Protocol: Media was harvested 18 h later for cytokine analyses.

CD33, sequence (P20138 18-364): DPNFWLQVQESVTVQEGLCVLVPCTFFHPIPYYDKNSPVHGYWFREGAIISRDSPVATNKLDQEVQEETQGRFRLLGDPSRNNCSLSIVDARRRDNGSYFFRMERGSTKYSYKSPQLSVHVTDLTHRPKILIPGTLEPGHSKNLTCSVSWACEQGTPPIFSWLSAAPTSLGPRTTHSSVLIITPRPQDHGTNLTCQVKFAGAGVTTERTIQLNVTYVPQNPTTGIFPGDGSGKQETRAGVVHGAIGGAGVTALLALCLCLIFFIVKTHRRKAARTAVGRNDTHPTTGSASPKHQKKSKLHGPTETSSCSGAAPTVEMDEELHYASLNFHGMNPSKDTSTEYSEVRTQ

SGN-33: anti-CD33 antibody, a humanized version of mouse monoclonal antibody M195
survival (HEL9217 cells; HEL9217 model, SCID mice, q4dx4, p<0.005 (FIG. 26)): > 80 days | increase of survival (HEL9217 cells; MDR-positive HEL9217 model, 4 doses at 10 or 30 mg/kg, p<0.025): greater than 40 days | ADCC activity (cell lysis) [1]: mediated antibody-dependent cell cytotoxity; also recorded: mediate cell lysis of MDR− and MDR+AML tumor cell lines | macrophage migration ([2]; 10% human serum or 20% conditioned media from RPMI 8226 cells, p<0.05 (FIG. 21)): significantly reduced the migration | blocking of migration of neuraminidase-treated macrophages ([2]; SGN-33 added to neuraminidase-treated macrophages, serum or tumor cell conditioned media (FIG. 14C)): greater blocking effect | blast cells in patients [3]: induced significant reductions in blast cells | survival (HL-60 cells; HL60 model, SCID mice, q4dx4, p<0.005 (FIG. 26)): > 100 days | increase of survival (HL-60 cells; MDR-negative HL60 model, 3 to 30 mg/kg, p<0.0001): > 100 days | survival rate (HL-60 cells; SGN-33 30 mg/kg q4dx5 ip (FIG. 24)): ~85% | survival rate (HL-60 cells; SGN-33 3 or 10 mg/kg q4dx5 ip (FIG. 24)): ~50% | phosphorylation of CD33 (CD33; HL-60 AML cells (FIG. 16)): induced phosphorylation of CD33 | CD33 tyrosine phosphorylation (CD33; HL-60 and U937 cells, soluble or cross-linked antibody (FIG. 2)): stimulated CD33 tyrosine phosphorylation | CD33 tyrosine phosphorylation (CD33; HL-60 cells, soluble and cross-linked antibody (FIG. 1)): stimulated CD33 tyrosine phosphorylation | lysis of AML cells (CDC) (HEL 92.1.7 cells): increased lysis of AML cell lines in a dose-dependent manner | cell viability of macrophages [4]: not due to an adverse effect; also recorded: does not affect the viability | production of IL-8, IP-10, MIP1β, RANTES and MCP-1 (KG-1 AML cell line): reduced the production of IL-8, IP-10, MIP1β, RANTES, and MCP-1
